What was measured:
tomato leaves = conditions: in vivo
Protocol: Tracer loading into star polymers. To load CV into star polymers, 10 mg of star polymer was dissolved into 5 mL of Milli Q water with pH adjusted to 7.5 by adding aliquots of 0.1M HCl and 0.1 M NaOH. 2 mg of CV was added into the star polymer solution and the mixture was vortex mixed for 24 h. The resulting solution was dialyzed against 2 L of Milli Q water for 2 cycles to remove free CV. After dialysis, the sample volume was adjusted to 20 mL to get a 0.5 g L^−1 CV loaded star polymer solution. Spreading agent Silwet L-77 was added into the star polymer solution at 0.1% (v/v) before foliar application. 20 μL of the CV loaded star polymer was applied onto tomato leaves by drop deposition.
This enhanced resolution dark-field microscope system (BX51, Olympus, USA) was equipped with a 150 W halogen light source (Fiber-Lite, Dolan-Jenner, USA) and a hyperspectral camera (CytoViva hyperspectral imaging system 1.4). […] Hyperspectral images were acquired using 100% light source intensity and 0.1 to 0.25 s acquisition per line and corrected for the lamp contribution. […]
RSP uptake and distribution in tomato leaves. RSP interactions with the plant leaf after foliar application was assessed by dark field hyperspectral imaging (DF-HSI) of crystal violet (CV) loaded RSP in tomato leaves. […]

tomato plants = assay: Leaf carbon assimilation and chlorophyll fluorescence under combined heat and excess light stress; assay type: in vivo, Solanum lycopersicum; conditions: after heat and light stress 1.5 h
Protocol: Plant growth. […] The sterilized seeds were germinated in petri-dish on water-soaked filter paper under dark for 10 days. Afterwards, the seedlings were transplanted to 100 mL plastic cups. Each seedling was grown hydroponically using 1⁄4 strength Hoagland's solution aerated using air pumps. […] Leaf carbon assimilation rate and chlorophyll fluorescence. Plant leaf carbon assimilation and chlorophyll fluorescence was measured by a Li-Cor Li-6800 portable photosynthesis system. […] Combined heat and excess light stress. The carbon (A-Ci) and light response (A-PAR) curves of treated leaves were measured before stress conditions. […] The carbon and light response curves were measured again and compared with the curve acquired before stress. […] Light adapted ([…]) chlorophyll fluorescent test were also performed before and after stress conditions. The A-Ci curves were analyzed according to previously reported model for C3 plants: […]

| Compound | Location in tomato leaf (tomato leaves) | Photosynthesis enhancement compared to control leaves (tomato plants) |
| --- | --- | --- |
| CN(C)c1ccc(C(=C2C=CC(=[N+](C)C)C=C2)c2ccc(N(C)C)cc2)cc1 [CV, crystal violet] | primarily found on the leaf epidermis, with a limited amount inside the mesophyll | – |
| [Cl-].[Cl-].[Mg+2] [Mg^2+] | – | No significant photosynthesis enhancement |

From US20230309554A1, “Polymer Carriers for Delivery of Agrochemicals in Crop Plants” (Carnegie Mellon University, priority 2020, published 2023)
